ChEMBL document CHEMBL3352415, “Synthesis and biological evaluation of novel thiadiazole amides as potent Cdc25B and PTP1B inhibitors” (Bioorg Med Chem Lett, 2014)

Tests used:
[1] = target: T1, M-phase inducer phosphatase 2 (Homo sapiens) (UniProt P30305); test: Inhibition of Cdc25B (unknown origin) at 5 ug/ml
T1 sequence (whole entry): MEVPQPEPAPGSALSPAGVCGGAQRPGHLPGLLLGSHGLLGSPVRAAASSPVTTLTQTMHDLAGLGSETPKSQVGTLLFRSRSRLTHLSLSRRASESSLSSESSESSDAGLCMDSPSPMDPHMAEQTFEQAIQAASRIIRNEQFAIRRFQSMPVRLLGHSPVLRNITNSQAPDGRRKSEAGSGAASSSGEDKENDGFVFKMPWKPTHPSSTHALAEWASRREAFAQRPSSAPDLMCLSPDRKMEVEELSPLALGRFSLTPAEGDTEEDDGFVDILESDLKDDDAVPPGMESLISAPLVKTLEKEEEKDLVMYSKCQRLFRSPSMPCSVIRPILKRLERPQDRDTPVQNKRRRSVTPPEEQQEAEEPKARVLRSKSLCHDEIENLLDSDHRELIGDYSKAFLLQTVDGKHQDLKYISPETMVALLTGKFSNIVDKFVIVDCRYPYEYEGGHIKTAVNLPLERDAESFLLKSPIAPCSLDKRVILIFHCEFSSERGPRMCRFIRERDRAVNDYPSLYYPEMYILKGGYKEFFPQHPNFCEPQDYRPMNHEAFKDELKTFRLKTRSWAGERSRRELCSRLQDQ

[2] = target: T2, Tyrosine-protein phosphatase non-receptor type 1 (Homo sapiens) (UniProt P18031); test: Inhibition of PTP1B (unknown origin) at 5 ug/ml
T2 sequence (whole entry): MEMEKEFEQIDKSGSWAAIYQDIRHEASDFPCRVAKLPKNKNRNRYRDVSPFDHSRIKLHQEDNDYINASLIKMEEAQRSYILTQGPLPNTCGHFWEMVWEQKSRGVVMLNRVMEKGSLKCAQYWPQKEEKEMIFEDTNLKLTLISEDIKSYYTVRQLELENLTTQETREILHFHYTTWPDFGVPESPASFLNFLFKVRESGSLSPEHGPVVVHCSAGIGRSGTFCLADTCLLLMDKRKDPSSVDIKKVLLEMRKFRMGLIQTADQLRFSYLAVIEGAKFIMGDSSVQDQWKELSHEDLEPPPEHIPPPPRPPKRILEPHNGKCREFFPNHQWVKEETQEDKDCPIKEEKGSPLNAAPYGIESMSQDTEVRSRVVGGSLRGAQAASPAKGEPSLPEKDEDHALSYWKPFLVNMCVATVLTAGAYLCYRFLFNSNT

[3] = target: T3, Tyrosine-protein phosphatase non-receptor type 2 (Homo sapiens, UniProt P17706); test: Inhibition of TCPTP (unknown origin)
T3 sequence (P17706 whole entry): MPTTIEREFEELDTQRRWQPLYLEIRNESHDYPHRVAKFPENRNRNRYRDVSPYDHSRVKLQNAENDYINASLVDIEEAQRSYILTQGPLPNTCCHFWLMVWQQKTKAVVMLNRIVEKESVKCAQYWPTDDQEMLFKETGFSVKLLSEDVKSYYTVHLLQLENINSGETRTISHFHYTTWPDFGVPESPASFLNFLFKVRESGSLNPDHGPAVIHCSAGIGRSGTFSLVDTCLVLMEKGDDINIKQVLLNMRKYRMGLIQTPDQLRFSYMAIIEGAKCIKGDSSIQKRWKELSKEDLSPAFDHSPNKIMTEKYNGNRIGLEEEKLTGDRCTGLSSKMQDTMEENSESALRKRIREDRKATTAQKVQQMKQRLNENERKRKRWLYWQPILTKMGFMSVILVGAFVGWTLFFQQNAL

[4] = target: Tyrosine-protein phosphatase non-receptor type 6 (Homo sapiens, UniProt P29350); test: Inhibition of SHP1 (unknown origin)
[5] = target: T4, Tyrosine-protein phosphatase non-receptor type 11 (Homo sapiens, UniProt Q06124); test: Inhibition of SHP2 (unknown origin)
T4 sequence (Q06124 whole entry): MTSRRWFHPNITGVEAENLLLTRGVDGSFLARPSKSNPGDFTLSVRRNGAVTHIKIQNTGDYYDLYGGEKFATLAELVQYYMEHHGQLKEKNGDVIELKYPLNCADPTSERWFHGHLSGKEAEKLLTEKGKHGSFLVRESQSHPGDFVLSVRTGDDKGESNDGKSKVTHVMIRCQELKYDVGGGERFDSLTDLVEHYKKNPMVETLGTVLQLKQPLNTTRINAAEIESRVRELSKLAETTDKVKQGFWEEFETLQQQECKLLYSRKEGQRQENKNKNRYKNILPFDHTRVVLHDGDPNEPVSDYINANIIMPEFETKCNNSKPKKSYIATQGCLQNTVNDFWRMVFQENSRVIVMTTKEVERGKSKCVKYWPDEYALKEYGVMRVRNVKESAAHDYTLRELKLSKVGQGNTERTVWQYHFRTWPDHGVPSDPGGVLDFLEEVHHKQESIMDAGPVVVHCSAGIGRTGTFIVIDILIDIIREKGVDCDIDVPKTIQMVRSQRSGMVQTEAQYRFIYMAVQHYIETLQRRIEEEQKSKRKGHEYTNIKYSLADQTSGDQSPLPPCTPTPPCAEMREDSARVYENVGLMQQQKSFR

[6] = target: Receptor-type tyrosine-protein phosphatase F (Homo sapiens, UniProt P10586); test: Inhibition of LAR (unknown origin)
[7] = target: T5, Tyrosine-protein phosphatase non-receptor type 1 (Homo sapiens, UniProt P18031); test: Inhibition of PTP1B (unknown origin)
T5 sequence (P18031 whole entry): T2 sequence (whole entry)

[8] = target: T6, M-phase inducer phosphatase 2 (Homo sapiens, UniProt P30305); test: Inhibition of Cdc25B (unknown origin)
T6 sequence (P30305 whole entry): T1 sequence (whole entry)

Sequence of Receptor-type tyrosine-protein phosphatase F (P10586 whole entry): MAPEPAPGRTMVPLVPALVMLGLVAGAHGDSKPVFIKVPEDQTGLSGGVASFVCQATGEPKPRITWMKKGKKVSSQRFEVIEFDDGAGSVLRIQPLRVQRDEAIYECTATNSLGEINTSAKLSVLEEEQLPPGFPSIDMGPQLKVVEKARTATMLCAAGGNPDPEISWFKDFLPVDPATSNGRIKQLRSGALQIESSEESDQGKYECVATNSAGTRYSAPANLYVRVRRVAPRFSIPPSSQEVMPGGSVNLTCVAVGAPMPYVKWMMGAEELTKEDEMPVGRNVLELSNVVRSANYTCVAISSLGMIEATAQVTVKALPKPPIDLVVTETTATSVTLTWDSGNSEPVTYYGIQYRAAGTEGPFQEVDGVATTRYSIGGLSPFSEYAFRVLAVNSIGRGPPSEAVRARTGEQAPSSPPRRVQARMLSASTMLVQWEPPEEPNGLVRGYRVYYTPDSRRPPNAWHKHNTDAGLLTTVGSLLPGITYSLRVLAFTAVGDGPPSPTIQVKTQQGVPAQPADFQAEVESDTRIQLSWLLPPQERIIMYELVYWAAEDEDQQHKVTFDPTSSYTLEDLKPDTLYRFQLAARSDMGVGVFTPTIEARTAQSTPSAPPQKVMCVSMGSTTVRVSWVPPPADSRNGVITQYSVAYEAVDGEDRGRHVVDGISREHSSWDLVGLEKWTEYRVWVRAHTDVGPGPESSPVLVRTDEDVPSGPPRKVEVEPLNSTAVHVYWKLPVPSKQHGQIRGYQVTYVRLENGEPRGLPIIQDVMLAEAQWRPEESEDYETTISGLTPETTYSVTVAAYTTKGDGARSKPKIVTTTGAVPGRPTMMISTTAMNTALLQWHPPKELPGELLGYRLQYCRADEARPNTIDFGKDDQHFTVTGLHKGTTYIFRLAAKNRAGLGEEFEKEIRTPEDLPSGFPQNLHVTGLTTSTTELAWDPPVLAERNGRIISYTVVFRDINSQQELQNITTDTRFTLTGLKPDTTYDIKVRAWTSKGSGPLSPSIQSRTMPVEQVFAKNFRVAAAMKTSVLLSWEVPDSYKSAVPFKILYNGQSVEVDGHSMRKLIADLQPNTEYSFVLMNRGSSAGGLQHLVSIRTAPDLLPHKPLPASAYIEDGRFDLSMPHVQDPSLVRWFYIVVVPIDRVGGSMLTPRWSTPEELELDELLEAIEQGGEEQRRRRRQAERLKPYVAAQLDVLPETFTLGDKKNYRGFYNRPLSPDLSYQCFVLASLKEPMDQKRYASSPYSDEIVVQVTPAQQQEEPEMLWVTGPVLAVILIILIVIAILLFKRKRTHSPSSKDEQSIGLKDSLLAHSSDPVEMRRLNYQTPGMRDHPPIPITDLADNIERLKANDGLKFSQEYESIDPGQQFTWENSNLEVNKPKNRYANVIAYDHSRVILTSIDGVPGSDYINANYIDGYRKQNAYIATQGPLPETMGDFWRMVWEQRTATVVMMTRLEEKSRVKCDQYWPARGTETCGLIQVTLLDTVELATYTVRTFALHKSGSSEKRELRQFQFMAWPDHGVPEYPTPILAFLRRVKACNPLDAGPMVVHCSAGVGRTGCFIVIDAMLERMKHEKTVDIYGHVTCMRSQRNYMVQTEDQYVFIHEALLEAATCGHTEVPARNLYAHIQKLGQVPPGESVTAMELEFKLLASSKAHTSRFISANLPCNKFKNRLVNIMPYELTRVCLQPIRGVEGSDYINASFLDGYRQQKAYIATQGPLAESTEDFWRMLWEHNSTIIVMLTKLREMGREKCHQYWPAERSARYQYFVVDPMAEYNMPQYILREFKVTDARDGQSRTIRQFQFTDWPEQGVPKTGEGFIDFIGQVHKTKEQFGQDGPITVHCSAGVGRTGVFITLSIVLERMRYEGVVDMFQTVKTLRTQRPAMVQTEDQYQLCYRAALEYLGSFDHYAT
Sequence of Tyrosine-protein phosphatase non-receptor type 6 (P29350 whole entry): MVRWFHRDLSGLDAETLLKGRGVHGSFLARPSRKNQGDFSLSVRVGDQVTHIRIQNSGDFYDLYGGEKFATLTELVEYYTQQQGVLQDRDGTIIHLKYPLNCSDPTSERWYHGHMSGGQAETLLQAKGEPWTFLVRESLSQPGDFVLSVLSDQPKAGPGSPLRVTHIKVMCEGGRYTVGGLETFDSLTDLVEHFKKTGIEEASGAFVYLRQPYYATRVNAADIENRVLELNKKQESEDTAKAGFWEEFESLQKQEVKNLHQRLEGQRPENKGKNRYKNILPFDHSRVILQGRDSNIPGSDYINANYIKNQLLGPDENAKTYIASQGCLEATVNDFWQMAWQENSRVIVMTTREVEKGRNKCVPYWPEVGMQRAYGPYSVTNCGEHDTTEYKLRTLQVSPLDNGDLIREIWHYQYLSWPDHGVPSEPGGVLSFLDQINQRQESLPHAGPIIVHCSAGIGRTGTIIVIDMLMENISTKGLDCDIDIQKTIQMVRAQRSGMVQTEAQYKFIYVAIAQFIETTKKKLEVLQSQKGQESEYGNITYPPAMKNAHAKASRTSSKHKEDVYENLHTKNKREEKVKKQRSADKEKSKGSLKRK

Molecule | inhibition [1] | inhibition [2] | IC50 [3] | IC50 [4] | IC50 [5] | IC50 [6] | IC50 [7] | IC50 [8]
O=C(Nc1nnc(-c2ccc(Oc3ccc([N+](=O)[O-])cc3)cc2)s1)c1ccccc1Cl | 46.4% | 63% | Not Active | Not Active | Not Active | Not Active | 13.8 µM | –
O=C(Nc1nnc(-c2ccc(Oc3ccc([N+](=O)[O-])cc3)cc2)s1)c1cccc([N+](=O)[O-])c1 | 24.2% | 94.6% | Not Active | Not Active | Not Active | Not Active | 1.83 µM | –
O=C(Nc1nnc(-c2ccc(Oc3ccc([N+](=O)[O-])cc3[N+](=O)[O-])cc2)s1)c1ccc([N+](=O)[O-])cc1 | 97.7% | 81.8% | Not Active | Not Active | Not Active | Not Active | 15.8 µM | 9.4 µM
O=C(Nc1nnc(-c2ccc(Oc3ccc([N+](=O)[O-])cc3)cc2)s1)c1ccc([N+](=O)[O-])cc1 | 96.4% | 95.2% | Not Active | Not Active | Not Active | Not Active | 3.6 µM | 8.54 µM
COc1ccc(C(=O)Nc2nnc(-c3ccc(Oc4ccc([N+](=O)[O-])cc4[N+](=O)[O-])cc3)s2)cc1 | 28.9% | 92.9% | Not Active | Not Active | Not Active | Not Active | 7.6 µM | –
O=C(Nc1nnc(-c2ccc(Oc3ccc([N+](=O)[O-])cc3[N+](=O)[O-])cc2)s1)c1ccc(Cl)cc1 | 90.2% | 42.3% | Not Active | Not Active | Not Active | Not Active | – | 4.44 µM
O=C(Cc1ccccc1)Nc1nnc(-c2ccc(Oc3ccc([N+](=O)[O-])cc3[N+](=O)[O-])cc2)s1 | 91.7% | 90.9% | Not Active | Not Active | Not Active | Not Active | 4.11 µM | 3.29 µM
COc1ccccc1C(=O)Nc1nnc(-c2ccc(Oc3ccc([N+](=O)[O-])cc3[N+](=O)[O-])cc2)s1 | 17.5% | 91.3% | Not Active | Not Active | Not Active | Not Active | 3.81 µM | –
COc1cc(C(=O)Nc2nnc(-c3ccc(Oc4ccc([N+](=O)[O-])cc4[N+](=O)[O-])cc3)s2)cc(OC)c1OC | 84.5% | 84.2% | Not Active | Not Active | Not Active | Not Active | 5.24 µM | 3.99 µM
O=C(Nc1nnc(-c2ccc(Oc3ccc([N+](=O)[O-])cc3)cc2)s1)c1cccc(F)c1 | 81.7% | 37.1% | Not Active | Not Active | Not Active | Not Active | – | 10.5 µM
Cc1ccc(C(=O)Nc2nnc(-c3ccc(Oc4ccc([N+](=O)[O-])cc4[N+](=O)[O-])cc3)s2)cc1 | 94.5% | 85.3% | Not Active | Not Active | Not Active | Not Active | 10.8 µM | 2.47 µM
COc1ccccc1C(=O)Nc1nnc(-c2ccc(Oc3ccc([N+](=O)[O-])cc3)cc2)s1 | 26.1% | 84.8% | Not Active | Not Active | Not Active | Not Active | 13.1 µM | –
O=C(Nc1nnc(-c2ccc(Oc3ccc([N+](=O)[O-])cc3)cc2)s1)c1ccccc1F | 63.6% | 60.6% | Not Active | Not Active | Not Active | Not Active | 17.1 µM | 10.2 µM
COc1cccc(C(=O)Nc2nnc(-c3ccc(Oc4ccc([N+](=O)[O-])cc4[N+](=O)[O-])cc3)s2)c1 | 92.6% | 86.3% | Not Active | Not Active | Not Active | Not Active | 10.8 µM | 8.33 µM
SODIUM ORTHOVANAD | – | – | – | 15.9 µg/mL | 24.1 µg/mL | – | – | –
O=C(Nc1nnc(-c2ccc(Oc3ccc([N+](=O)[O-])cc3[N+](=O)[O-])cc2)s1)c1cccc(Cl)c1 | 37% | 80.7% | Not Active | Not Active | Not Active | Not Active | 6.71 µM | –
O=C(Nc1nnc(-c2ccc(Oc3ccc([N+](=O)[O-])cc3)cc2)s1)c1ccc(F)cc1 | 31.7% | 77.1% | Not Active | Not Active | Not Active | Not Active | 20 µM | –
O=C(Nc1nnc(-c2ccc(Oc3ccc([N+](=O)[O-])cc3)cc2)s1)c1ccccc1[N+](=O)[O-] | 13% | 85% | Not Active | Not Active | Not Active | Not Active | 9.17 µM | –
COc1cccc(C(=O)Nc2nnc(-c3ccc(Oc4ccc([N+](=O)[O-])cc4)cc3)s2)c1 | 2.52% | 32.1% | Not Active | Not Active | Not Active | Not Active | – | –
O=C(Cc1ccccc1)Nc1nnc(-c2ccc(Oc3ccc([N+](=O)[O-])cc3)cc2)s1 | 43.6% | 54.9% | Not Active | Not Active | Not Active | Not Active | 12.6 µM | –
Cc1ccc(C(=O)Nc2nnc(-c3ccc(Oc4ccc([N+](=O)[O-])cc4)cc3)s2)cc1 | 25.8% | 68.4% | Not Active | Not Active | Not Active | Not Active | 19.1 µM | –
